Assays:
[1] = tested on: Staphylococcus epidermidis; conditions: Ref. 22; cited from earlier work
[2] = acute oral semilethal dose (LD50) in mice; conditions: mouse, in vivo
Text: Thus, DTPA is a safe oral drug, representing a preferred iron chelator for the compositions of the present invention.
It is therefore a further preferred iron chelator for the compositions of the invention.

[3] = in vivo; cited from earlier work
mice = conditions: cited from earlier work
[4] = tested on: Corynebacterium xerosis ATCC 7711; conditions: Ref. 23; cited from earlier work

Row | Structure (SMILES) | inhibition of growth of Staphylococcus epidermidis [1] | further results
1 | O=C(O)CN(CCN(CC(=O)O)CC(=O)O)CC(=O)O [EDTA, ethylenediaminetetraacetic acid] | inhibit the growth | –
2 | O=C(O)CN(CCN(CC(=O)O)CC(=O)O)CCN(CC(=O)O)C(COCc1ccccc1)C(=O)O (centres unmarked) [BOPTA, 4-carboxy-5,8,11-tris(carboxymethyl)-1-phenyl-2-oxa-5,8,11-triazatridecan-13-oic acid] | – | LD50 [2]: 8400 µmol/kg
3 | O=C(O)CN(CC(=O)O)[C@@H]1CCCC[C@H]1N(CC(=O)O)CC(=O)O (relative stereo) [CDTA, trans-1,2-diaminocyclohexane-N,N,N′,N′-tetraacetic acid] | inhibit the growth | –
4 | O=C(O)CN(CCN(CCN(CC(=O)O)CC(=O)O)CC(=O)O)CCN(CC(=O)O)CC(=O)O [TTHA, triethylene-tetraaminehexaacetic acid] | inhibit the growth | –
5 | O=C([O-])CN(CCN(CC(=O)[O-])CC(=O)[O-])CCN(CC(=O)[O-])CC(=O)[O-].[H+].[H+].[Na+].[Na+].[Na+] [trisodium pentetate] | – | safety of oral dose [3]: proven to be safe
6 | O=C(O)CN(CCN(CC(=O)O)CC(=O)O)CCN(CC(=O)O)CC(=O)O [DTPA, diethylenetriaminepentaacetic acid] | inhibit the growth | acute oral semilethal dose (LD50) (mice): 3500 mg/kg
7 | O=C(O)C[C@H](NCCN[C@@H](CC(=O)O)C(=O)O)C(=O)O [R,S-EDDS, R,S-ethylenediaminedisuccinic acid] | – | inhibition of growth of Corynebacterium xerosis ATCC 7711 [4]: inhibit growth
